# Assay: Pharmacokinetics after oral capsules (sCT plus Dmt-DALDA with citric acid and lauroyl carnitine), non-enteric coated or enteric coated, in fasted beagle dogs (plasma; ELISA for sCT, HPLC-MS for Dmt-DALDA)
# Format: in vivo
# Details: for AUC / Cmax: normalized to a 1 mg dose; for Tmax / Cmax: beagle, dog, plasma, oral; for plasma peptide concentration normalized to a 1 mg dose: enteric coated capsule
# Method: A second series of tests was carried out, as noted above, using beagle dogs. […] In the experiments represented in FIGS. 2A and 2B, size 00 […] capsules were each filled with 758 mg of a powdered blend consisting of citric acid (643 mg), lauroyl carnitine (66 mg), talc (33 mg), salmon calcitonin (sCT) (13 mg) and Dmt-DALDA (2.4 mg). Half of the capsules were coated with an enteric coating solution of L30D-55, while the remaining 50% of the capsules were not coated. Four fasted dogs were each given 1 uncoated capsule, and 2 weeks later they were each given an enteric coated capsule. After administration of each capsule, samples of blood were taken at 15 minute intervals from an indwelling catheter for up to 4 hours. The blood samples were centrifuged and the resulting plasma supernatants were stored frozen at −20° C. The plasma samples were subsequently analyzed for sCT by a direct ELISA, and for Dmt-DALDA by HPLC-mass spectrometry performed as set forth in Wan, H. and Desiderio, D., Quantitation of [DMT^1] DALDA in ovine plasma by on-line liquid chromatography/quadrapole time-of-flight mass spectrometry, Rapid Communications in Mass Spectrometry, 2003; 17, 538-546, the contents of which are incorporated herein by reference.
# The results summarized in FIGS. 2A and 2B as plasma peptide concentration normalized to a 1 mg dose as a function of time relative to the average Tmax, (i.e., the time at which the maximum amount of peptide was detected) indicate that both peptides, i.e., sCT and Dmt-DALDA, were detected in dogs given uncoated or enteric coated capsules. […] Table DI (below) sets forth the values upon which the curves in FIGS. 2A and 2B are based. The results are summarized in the tables as plasma peptide concentration normalized to a 1 mg dose as a function of time. Table III, moreover, provides the standard deviations for the data obtained regarding each of the test dogs, which standard deviations are also indicated in FIGS. 2A and 2B.
# Table IV (below) summarizes the pharmacokinetic parameters in dogs of orally administered sCT and Dmt-DALDA when administered in non-enteric coated versus enteric coated capsules. Peptide was not detected from 1 dog in each group due to (a) Dog 3 vomiting the uncoated capsule and (b) delayed gastric emptying in Dog 2 provided with an enteric coated capsule. Cmax and AUC are as defined with regard to Table H above.
# [1] = Non-Enteric Capsule, Avg (n = 3)
smiles,measurement,setting,value
"Cc1cc(O)cc(C)c1C[C@H](N)C(=O)N[C@H](CCCNC(=N)N)C(=O)N[C@@H](Cc1ccccc1)C(=O)N[C@@H](CCCCN)C(N)=O [Dmt-DALDA, H-2,6-dimethyltyrosine-D-Arginine-Phenylalanine-Lysine-NH2]",AUC,"Enteric Capsule, Avg (n = 3)",1443143 pg/mL-min
same,AUC,"Enteric Capsule, Dog 1",2375695 pg/mL-min
same,AUC,"Enteric Capsule, Dog 2 (delayed gastric emptying)",0 pg/mL-min
same,AUC,"Enteric Capsule, Dog 3",1185373 pg/mL-min
same,AUC,"Enteric Capsule, Dog 4",768361 pg/mL-min
same,AUC,[1],542977 pg/mL-min
same,AUC,"Non-Enteric Capsule, Dog 1",410944 pg/mL-min
same,AUC,"Non-Enteric Capsule, Dog 2",707054 pg/mL-min
same,AUC,"Non-Enteric Capsule, Dog 3 (vomited capsule)",0 pg/mL-min
same,AUC,"Non-Enteric Capsule, Dog 4",510934 pg/mL-min
same,Tmax,"Enteric Capsule, Avg (n = 3)",100 min
same,Cmax,"Enteric Capsule, Avg (n = 3)",21 ng/mL
same,Tmax,"Enteric Capsule, Dog 1",45 min
same,Cmax,"Enteric Capsule, Dog 1",29.4 ng/mL
same,Tmax,"Enteric Capsule, Dog 3",135 min
same,Cmax,"Enteric Capsule, Dog 3",21.5 ng/mL
same,Tmax,"Enteric Capsule, Dog 4",120 min
same,Cmax,"Enteric Capsule, Dog 4",12.1 ng/mL
same,Tmax,[1],40 min
same,Cmax,[1],5.79 ng/mL
same,Tmax,"Non-Enteric Capsule, Dog 1",45 min
same,Cmax,"Non-Enteric Capsule, Dog 1",5.1 ng/mL
same,Tmax,"Non-Enteric Capsule, Dog 2",30 min
same,Cmax,"Non-Enteric Capsule, Dog 2",6.47 ng/mL
same,Tmax,"Non-Enteric Capsule, Dog 4",45 min
same,Cmax,"Non-Enteric Capsule, Dog 4",5.79 ng/mL
same,"Cmax and AUC, enteric coated capsules versus non enteric-coated capsules",dogs,significantly enhanced
same,Cmax of enteric coated relative to non enteric coated,dogs,4 fold
same,"amount of peptide detected in plasma, enteric coated capsules vs non-coated capsules",dogs,nearly four times as much
same,time at which the maximum concentration was seen,dogs given coated capsules,105 min
same,amount of Dmt-DALDA detected relative to sCT,dogs given enteric coated capsules,nearly equal amounts
same,amount of Dmt-DALDA detected relative to sCT,dogs given uncoated capsules,nearly three times as much
same,time at which the maximum concentration was seen,dogs given uncoated capsules,30 min
same,plasma peptide concentration normalized to a 1 mg dose,"Dog 1, 0 min",0 pg/mL
same,plasma peptide concentration normalized to a 1 mg dose,"Dog 1, 15 min",0 pg/mL
same,plasma peptide concentration normalized to a 1 mg dose,"Dog 1, 30 min",0 pg/mL
same,plasma peptide concentration normalized to a 1 mg dose,"Dog 1, 45 min",29440 pg/mL
same,plasma peptide concentration normalized to a 1 mg dose,"Dog 1, 60 min",25224 pg/mL
same,plasma peptide concentration normalized to a 1 mg dose,"Dog 1, 75 min",19768 pg/mL
same,plasma peptide concentration normalized to a 1 mg dose,"Dog 1, 90 min",19021 pg/mL
same,plasma peptide concentration normalized to a 1 mg dose,"Dog 1, 105 min",12324 pg/mL
same,plasma peptide concentration normalized to a 1 mg dose,"Dog 1, 120 min",8108 pg/mL
same,plasma peptide concentration normalized to a 1 mg dose,"Dog 1, 135 min",10714 pg/mL
same,plasma peptide concentration normalized to a 1 mg dose,"Dog 1, 150 min",9349 pg/mL
same,plasma peptide concentration normalized to a 1 mg dose,"Dog 1, 165 min",6743 pg/mL
same,plasma peptide concentration normalized to a 1 mg dose,"Dog 1, 180 min",5502 pg/mL
same,plasma peptide concentration normalized to a 1 mg dose,"Dog 1, 195 min",5008 pg/mL
same,plasma peptide concentration normalized to a 1 mg dose,"Dog 1, 210 min",3021 pg/mL
same,plasma peptide concentration normalized to a 1 mg dose,"Dog 2 (delayed gastric emptying), 0 min",0 pg/mL
same,plasma peptide concentration normalized to a 1 mg dose,"Dog 2 (delayed gastric emptying), 15 min",0 pg/mL
same,plasma peptide concentration normalized to a 1 mg dose,"Dog 2 (delayed gastric emptying), 30 min",0 pg/mL
same,plasma peptide concentration normalized to a 1 mg dose,"Dog 2 (delayed gastric emptying), 45 min",0 pg/mL
same,plasma peptide concentration normalized to a 1 mg dose,"Dog 2 (delayed gastric emptying), 60 min",0 pg/mL
same,plasma peptide concentration normalized to a 1 mg dose,"Dog 2 (delayed gastric emptying), 75 min",0 pg/mL
same,plasma peptide concentration normalized to a 1 mg dose,"Dog 2 (delayed gastric emptying), 90 min",0 pg/mL
same,plasma peptide concentration normalized to a 1 mg dose,"Dog 2 (delayed gastric emptying), 105 min",0 pg/mL
same,plasma peptide concentration normalized to a 1 mg dose,"Dog 2 (delayed gastric emptying), 120 min",0 pg/mL
same,plasma peptide concentration normalized to a 1 mg dose,"Dog 2 (delayed gastric emptying), 135 min",0 pg/mL
same,plasma peptide concentration normalized to a 1 mg dose,"Dog 2 (delayed gastric emptying), 150 min",0 pg/mL
same,plasma peptide concentration normalized to a 1 mg dose,"Dog 2 (delayed gastric emptying), 165 min",0 pg/mL
same,plasma peptide concentration normalized to a 1 mg dose,"Dog 2 (delayed gastric emptying), 180 min",0 pg/mL
same,plasma peptide concentration normalized to a 1 mg dose,"Dog 2 (delayed gastric emptying), 195 min",0 pg/mL
same,plasma peptide concentration normalized to a 1 mg dose,"Dog 2 (delayed gastric emptying), 210 min",0 pg/mL
same,plasma peptide concentration normalized to a 1 mg dose,"Dog 3, 0 min",0 pg/mL
same,plasma peptide concentration normalized to a 1 mg dose,"Dog 3, 15 min",0 pg/mL
same,plasma peptide concentration normalized to a 1 mg dose,"Dog 3, 30 min",0 pg/mL
